Literature values in patent US8415449B2, “Bioresorbable polymers synthesized from monomer analogs of natural metabolites” (Rutgers, The State University of New Jersey, priority 2009, dated 2013).

Details: as part of the clinical evaluation of the sebacic acid anhydride copolymer

Compound: O=C(O)CCCCCCCCC(=O)O [sebacic acid]
- toxicity finding: nontoxic
